In patent US10519099B2, “Cystobactamides” (priority 2014, dated 2019):
≈ marks a conversion by molar mass, not a printed value. Read-outs that look alike come from different tables or passages of the source.

How the values were obtained:
[1] = tested on: Acinetobacter baumannii DSM-30008; experiment: MIC microdilution, A. baumannii DSM-30008; assay type: cell-based; details: Acinetobacter baumannii, DSM30008
Protocol: (§1) Indicator strains used in susceptibility assays were either part of our strain collection or purchased from the German Collection of Microorgansims and Cell Cultures (DSMZ) or from the American Type Culture Collection (ATCC). E. coli strain WT and corresponding E. coli mutants were kindly provided by Prof. Dr. P. Heisig, Pharmaceutical Biology and Microbiology, University of Hamburg. E. coli strains JW0401-1 (WT) and Δtsx were obtained from the CGSC collection.
(§2) MIC values were determined in standardized microdilution assays. Overnight cultures were diluted in the appropriate growth medium to achieve an inoculum of 10^4-10^6 cfu/mL. Yeasts were grown in Myc medium (1% phytone peptone, 1% glucose, 50 mM HEPES, pH 7.0), S. pneumonia and Enterococcus spp. in tryptic soy broth (TSB: 1.7% peptone casein, 0.3% peptone soymeal, 0.25% glucose, 0.5% NaCl, 0.25% K2HPO4; pH 7.3); M. smegmatis in Middlebrook 7H9 medium supplemented with 10% Middlebrook ADC enrichment and 2 ml/I glycerol). All other listed bacteria were grown in Müller-Hinton broth (0.2% beef infusion solids, 1.75% casein hydrolysate, 0.15% starch, pH 7.4). Cystobactamides and reference drugs were added directly to the cultures in sterile 96-well plates as duplicates and serial dilutions were prepared. Microorganisms were grown on a microplate shaker (750 rpm, 30-37° C., 18-48 h), except S. pneumonia, which was grown at non-shaking conditions (37° C., 5% CO2, 18 h). Growth inhibition was assessed by visual inspection and the MIC was defined as the lowest concentration of compound that inhibited visible growth.

[2] = tested on: Citrobacter freundii DSM-30039; experiment: MIC microdilution, C. freundii DSM-30039; assay type: cell-based; details: Citrobacter freundii, DSM30039
Protocol: as §1, §2

E. coli DSM-1116 = experiment: MIC microdilution, E. coli DSM-1116; assay type: cell-based, Escherichia coli; details: Escherichia coli, DSM1116
Protocol: as §1, §2

[3] = tested on: E. coli DSM-26863 (tolC3); experiment: MIC microdilution, E. coli DSM-26863 (tolC3); assay type: cell-based, Escherichia coli; details: Escherichia coli
Protocol: as §1, §2

E. coli WT = experiment: MIC microdilution, E. coli WT; assay type: cell-based, Escherichia coli; details: Escherichia coli
Protocol: as §1, §2

[4] = tested on: E. coli WT-3 [gyrA(S83L, D87G)]; experiment: MIC microdilution, E. coli WT-3 [gyrA(S83L, D87G)]; assay type: cell-based, Escherichia coli; details: Escherichia coli
Protocol: as §1, §2

[5] = tested on: E. coli WT-III [marRΔ74bp]; experiment: MIC microdilution, E. coli WT-III [marRΔ74bp]; assay type: cell-based, Escherichia coli
Protocol: as §1, §2

[6] = tested on: Proteus vulgaris DSM-2140; experiment: MIC microdilution, P. vulgaris DSM-2140; assay type: cell-based; details: Proteus vulgaris, DSM2140
Protocol: as §1, §2

[7] = tested on: Chromobacterium violaceum DSM-30191; experiment: MIC microdilution, Chromobacterium violaceum DSM-30191; assay type: cell-based; details: DSM30191, larger panel, read-out: MIC Chromobacterium violaceum DSM-30191
Protocol: as §1
as §2, with “Cystobactamides and reference drugs were added directly to the cultures in sterile 96-well plates as duplicates and serial dilutions were prepared. Microorganisms were grown on a microplate shaker (750 rpm, 30-37° C., 18-48 h), except S. pneumonia, which was grown at non-shaking conditions (37° C., 5% CO2, 18 h).” left out

[8] = tested on: Escherichia coli MI [gyrA(S83L)]; experiment: MIC microdilution, E. coli MI [gyrA(S83L)]; assay type: cell-based; details: read-out: MIC Escherichia coli MI [gyrA(S83L)]
Protocol: as §1
as §2, with “Cystobactamides and reference drugs were added directly to the cultures in sterile 96-well plates as duplicates and serial dilutions were prepared. Microorganisms were grown on a microplate shaker (750 rpm, 30-37° C., 18-48 h), except S. pneumonia, which was grown at non-shaking conditions (37° C., 5% CO2, 18 h).” left out

[9] = tested on: Escherichia coli WT-3.2 [gyrA(D87G)]; experiment: MIC microdilution, E. coli WT-3.2 [gyrA(D87G)]; assay type: cell-based; details: read-out: MIC Escherichia coli WT-3.2 [gyrA(D87G)]
Protocol: as §1
as §2, with “Cystobactamides and reference drugs were added directly to the cultures in sterile 96-well plates as duplicates and serial dilutions were prepared. Microorganisms were grown on a microplate shaker (750 rpm, 30-37° C., 18-48 h), except S. pneumonia, which was grown at non-shaking conditions (37° C., 5% CO2, 18 h).” left out

[10] = tested on: Escherichia coli MI-4 [gyrA(S83L), parC(S80I)]; experiment: MIC microdilution, E. coli MI-4 [gyrA(S83L), parC(S80I)]; assay type: cell-based; details: read-out: MIC Escherichia coli MI-4 [gyrA(S83L), parC(S80I)]
Protocol: as §1
as §2, with “Cystobactamides and reference drugs were added directly to the cultures in sterile 96-well plates as duplicates and serial dilutions were prepared. Microorganisms were grown on a microplate shaker (750 rpm, 30-37° C., 18-48 h), except S. pneumonia, which was grown at non-shaking conditions (37° C., 5% CO2, 18 h).” left out

[11] = tested on: Escherichia coli DSM-12242 (NAL^R); experiment: MIC microdilution, E. coli DSM-12242 (NAL^R); assay type: cell-based; details: DSM12242, read-out: MIC Escherichia coli DSM-12242 (NAL^R)
Protocol: as §1
as §2, with “Cystobactamides and reference drugs were added directly to the cultures in sterile 96-well plates as duplicates and serial dilutions were prepared. Microorganisms were grown on a microplate shaker (750 rpm, 30-37° C., 18-48 h), except S. pneumonia, which was grown at non-shaking conditions (37° C., 5% CO2, 18 h).” left out

[12] = tested on: Escherichia coli ATCC35218; experiment: MIC microdilution, E. coli ATCC35218; assay type: cell-based; details: ATCC35218, larger panel, read-out: MIC Escherichia coli ATCC35218
Protocol: as §1
as §2, with “Cystobactamides and reference drugs were added directly to the cultures in sterile 96-well plates as duplicates and serial dilutions were prepared. Microorganisms were grown on a microplate shaker (750 rpm, 30-37° C., 18-48 h), except S. pneumonia, which was grown at non-shaking conditions (37° C., 5% CO2, 18 h).” left out

[13] = tested on: Escherichia coli ATCC25922; experiment: MIC microdilution, E. coli ATCC25922; assay type: cell-based; details: ATCC25922, larger panel, read-out: MIC Escherichia coli ATCC25922
Protocol: as §1
as §2, with “Cystobactamides and reference drugs were added directly to the cultures in sterile 96-well plates as duplicates and serial dilutions were prepared. Microorganisms were grown on a microplate shaker (750 rpm, 30-37° C., 18-48 h), except S. pneumonia, which was grown at non-shaking conditions (37° C., 5% CO2, 18 h).” left out

[14] = tested on: Klebsiella pneumoniae DSM-30104; experiment: MIC microdilution, Klebsiella pneumoniae DSM-30104; assay type: cell-based; details: DSM30104, larger panel, read-out: MIC Klebsiella pneumoniae DSM-30104
Protocol: as §1
as §2, with “Cystobactamides and reference drugs were added directly to the cultures in sterile 96-well plates as duplicates and serial dilutions were prepared. Microorganisms were grown on a microplate shaker (750 rpm, 30-37° C., 18-48 h), except S. pneumonia, which was grown at non-shaking conditions (37° C., 5% CO2, 18 h).” left out

[15] = tested on: Pseudomonas aeruginosa DSM-24599; experiment: MIC microdilution, P. aeruginosa DSM-24599; assay type: cell-based; details: Pseudomonas aeruginosa, DSM24599; larger panel; read-out: MIC Pseudomonas aeruginosa DSM-24599
Protocol: as §1, §2

[16] = tested on: Pseudomonas aeruginosa DSM-46316 (ESBL); experiment: MIC microdilution, P. aeruginosa DSM-46316 (ESBL); assay type: cell-based; details: Pseudomonas aeruginosa, DSM46316; larger panel; read-out: MIC Pseudomonas aeruginosa DSM-46316 (ESBL)
Protocol: as §1, §2

[17] = tested on: Serratia marcescens DSM-30121; experiment: MIC microdilution, Serratia marcescens DSM-30121; assay type: cell-based; details: Serratia marcescens, DSM30121; larger panel; read-out: MIC Serratia marcescens DSM-30121
Protocol: as §1, §2

[18] = tested on: Mycobacterium smegmatis ATCC700084; experiment: MIC microdilution, Mycobacterium smegmatis ATCC700084; assay type: cell-based; details: Mycolicibacterium smegmatis, ATCC700084; larger panel; read-out: MIC Mycobacterium smegmatis ATCC700084
Protocol: as §1
as §2, with “Cystobactamides and reference drugs were added directly to the cultures in sterile 96-well plates as duplicates and serial dilutions were prepared. Microorganisms were grown on a microplate shaker (750 rpm, 30-37° C., 18-48 h), except S. pneumonia, which was grown at non-shaking conditions (37° C., 5% CO2, 18 h).” left out

[19] = tested on: Staphylococcus epidermidis DSM-28765; experiment: MIC microdilution, Staphylococcus epidermidis DSM-28765; assay type: cell-based; details: Staphylococcus epidermidis, DSM28765; larger panel; read-out: MIC Staphylococcus epidermidis DSM-28765
Protocol: as §1, §2

[20] = tested on: Candida albicans DSM-1665; experiment: MIC microdilution, Candida albicans DSM-1665; assay type: cell-based; details: DSM1665, larger panel, read-out: MIC Candida albicans DSM-1665
Protocol: as §1
as §2, with “Cystobactamides and reference drugs were added directly to the cultures in sterile 96-well plates as duplicates and serial dilutions were prepared. Microorganisms were grown on a microplate shaker (750 rpm, 30-37° C., 18-48 h), except S. pneumonia, which was grown at non-shaking conditions (37° C., 5% CO2, 18 h).” left out

Pichia anomala DSM-6766 = experiment: MIC microdilution, Pichia anomala DSM-6766; assay type: cell-based; details: Hansenula anomala, DSM6766; larger panel; read-out: MIC Pichia anomala DSM-6766
Protocol: as §1
as §2, with “Cystobactamides and reference drugs were added directly to the cultures in sterile 96-well plates as duplicates and serial dilutions were prepared. Microorganisms were grown on a microplate shaker (750 rpm, 30-37° C., 18-48 h), except S. pneumonia, which was grown at non-shaking conditions (37° C., 5% CO2, 18 h).” left out

O=C(O)c1cn(C2CC2)c2cc(N3CCNCC3)c(F)cc2c1=O [CP, Ciprofloxacin, reference compound]
MIC ([1]; Gram-negative set, read-out: MIC A. baumannii DSM-30008): 0.8 µg/mL (≈ 2.41 µM) | MIC ([1]; larger panel, read-out: MIC Acinetobacter baumannii DSM-30008): 0.2 to 0.4 µg/mL (≈ 0.604 to 1.21 µM) | MIC ([2]; Gram-negative set, read-out: MIC C. freundii DSM-30039): 0.003 µg/mL (≈ 0.00905 µM) | MIC ([2]; larger panel, read-out: MIC Citrobacter freundii DSM-30039): 0.003 µg/mL (≈ 0.00905 µM) | MIC (E. coli DSM-1116; Gram-negative set, read-out: MIC E. coli DSM-1116): 0.01 µg/mL (≈ 0.0302 µM) | MIC (E. coli DSM-1116; larger panel, read-out: MIC Escherichia coli DSM-1116): 0.013 µg/mL (≈ 0.0392 µM) | MIC ([3]; DSM26863, read-out: MIC E. coli DSM-26863 (tolC3)): ≤ 0.003 µg/mL | MIC ([3]; DSM26863, read-out: MIC Escherichia coli DSM-26863 (tolC3)): 0.003 µg/mL (≈ 0.00905 µM) | MIC (E. coli WT; Gram-negative set, read-out: MIC E. coli WT): 0.013 µg/mL (≈ 0.0392 µM) | MIC (E. coli WT; larger panel, read-out: MIC Escherichia coli WT): 0.013 µg/mL (≈ 0.0392 µM) | MIC ([4]; read-out: MIC E. coli WT-3 [gyrA(S83L, D87G)]): 0.8 µg/mL (≈ 2.41 µM) | MIC ([4]; read-out: MIC Escherichia coli WT-3 [gyrA(S83L, D87G)]): 0.8 to 1.6 µg/mL (≈ 2.41 to 4.83 µM) | MIC E. coli WT-III [marRΔ74bp] ([5]; Gram-negative set): 0.1 µg/mL (≈ 0.302 µM) | MIC Escherichia coli WTIII (marRΔ74bp) ([5]; larger panel): 0.1 µg/mL (≈ 0.302 µM) | MIC ([6]; Gram-negative set, read-out: MIC P. vulgaris DSM-2140): 0.01 µg/mL (≈ 0.0302 µM) | MIC ([6]; larger panel, read-out: MIC Proteus vulgaris DSM-2140): 0.01 µg/mL (≈ 0.0302 µM) | MIC [7]: 0.006 to 0.013 µg/mL (≈ 0.0181 to 0.0392 µM) | MIC [8]: 0.4 to 0.8 µg/mL (≈ 1.21 to 2.41 µM) | MIC [9]: 0.4 µg/mL (≈ 1.21 µM) | MIC [10]: 0.8 µg/mL (≈ 2.41 µM) | MIC [11]: 0.05 µg/mL (≈ 0.151 µM) | MIC [12]: 0.013 µg/mL (≈ 0.0392 µM) | MIC [13]: 0.006 µg/mL (≈ 0.0181 µM) | MIC [14]: 0.025 µg/mL (≈ 0.0754 µM) | MIC [15]: > 6.4 µg/mL | MIC [16]: 0.1 µg/mL (≈ 0.302 µM) | MIC [17]: 0.1 µg/mL (≈ 0.302 µM) | MIC [18]: 0.2 to 0.4 µg/mL (≈ 0.604 to 1.21 µM) | MIC [19]: 0.2 µg/mL (≈ 0.604 µM) | MIC [20]: > 6.4 µg/mL | MIC (Pichia anomala DSM-6766): > 6.4 µg/mL
